Data published in ChEMBL document CHEMBL4507304, “Data for DCP probe TP-021” (2021).

Columns and labels:
[1] = molecular target: Activin receptor type-1B (Homo sapiens) (UniProt P36896); conditions: Compound concentration 1000.0 nM
[2] = molecular target: Activin receptor type-2A (Homo sapiens) (UniProt P27037); conditions: Compound concentration 1000.0 nM
[3] = molecular target: 5'-AMP-activated protein kinase catalytic subunit alpha-1 (Homo sapiens) (UniProt Q13131); conditions: Compound concentration 1000.0 nM
[4] = molecular target: Mitogen-activated protein kinase kinase kinase 6 (Homo sapiens) (UniProt O95382); conditions: Compound concentration 1000.0 nM
[5] = molecular target: Cyclin-dependent kinase 4 (Homo sapiens) (UniProt P11802); conditions: Compound concentration 1000.0 nM
[6] = molecular target: Cyclin-dependent kinase-like 1 (Homo sapiens) (UniProt Q00532); conditions: Compound concentration 1000.0 nM
[7] = molecular target: Macrophage colony-stimulating factor 1 receptor (Homo sapiens) (UniProt P07333); conditions: Compound concentration 1000.0 nM
[8] = molecular target: Ephrin type-A receptor 3 (Homo sapiens) (UniProt P29320); conditions: Compound concentration 1000.0 nM
[9] = molecular target: Receptor-type tyrosine-protein kinase FLT3 (Homo sapiens) (UniProt P36888); conditions: Compound concentration 1000.0 nM
[10] = system: Receptor-type tyrosine-protein kinase FLT3 (Homo sapiens), P36888 [UNDEFINED MUTATION]; conditions: Compound concentration 1000.0 nM
[11] = molecular target: Receptor-type tyrosine-protein kinase FLT3 (Homo sapiens) (UniProt P36888); conditions: Compound concentration 1000.0 nM; remark: listed apart in the source
[12] = molecular target: Tyrosine-protein kinase FRK (Homo sapiens) (UniProt P42685); conditions: Compound concentration 1000.0 nM
[13] = molecular target: Tyrosine-protein kinase Fyn (Homo sapiens) (UniProt P06241); conditions: Compound concentration 1000.0 nM
[14] = molecular target: Inhibitor of nuclear factor kappa-B kinase subunit epsilon (Homo sapiens) (UniProt Q14164); conditions: Compound concentration 1000.0 nM
[15] = molecular target: Insulin receptor (Homo sapiens) (UniProt P06213); conditions: Compound concentration 1000.0 nM
[16] = molecular target: Insulin receptor-related protein (Homo sapiens) (UniProt P14616); conditions: Compound concentration 1000.0 nM
[17] = molecular target: Tyrosine-protein kinase JAK1 (Homo sapiens) (UniProt P23458); conditions: Compound concentration 1000.0 nM
[18] = molecular target: Tyrosine-protein kinase Lck (Homo sapiens) (UniProt P06239); conditions: Compound concentration 1000.0 nM
[19] = molecular target: Serine/threonine-protein kinase MARK2 (Homo sapiens) (UniProt Q7KZI7); conditions: Compound concentration 1000.0 nM
[20] = molecular target: Dual specificity mitogen-activated protein kinase kinase 6 (Homo sapiens) (UniProt P52564); conditions: Compound concentration 1000.0 nM
[21] = molecular target: Muscle, skeletal receptor tyrosine-protein kinase (Homo sapiens) (UniProt O15146); conditions: Compound concentration 1000.0 nM
[22] = molecular target: Myosin-IIIb (Homo sapiens) (UniProt Q8WXR4); conditions: Compound concentration 1000.0 nM
[23] = molecular target: Serine/threonine-protein kinase Nek5 (Homo sapiens) (UniProt Q6P3R8); conditions: Compound concentration 1000.0 nM
[24] = molecular target: Serine/threonine-protein kinase PAK 6 (Homo sapiens) (UniProt Q9NQU5); conditions: Compound concentration 1000.0 nM
[25] = molecular target: Cyclin-dependent kinase 17 (Homo sapiens) (UniProt Q00537); conditions: Compound concentration 1000.0 nM
[26] = system: Phosphatidylinositol 4,5-bisphosphate 3-kinase catalytic subunit alpha isoform (Homo sapiens), P42336 [C420R]; conditions: Compound concentration 1000.0 nM
[27] = system: Phosphatidylinositol 4,5-bisphosphate 3-kinase catalytic subunit alpha isoform (Homo sapiens), P42336 [E545A]; conditions: Compound concentration 1000.0 nM
[28] = system: Phosphatidylinositol 4,5-bisphosphate 3-kinase catalytic subunit alpha isoform (Homo sapiens), P42336 [E545K]; conditions: Compound concentration 1000.0 nM
[29] = system: Proto-oncogene tyrosine-protein kinase receptor Ret (Homo sapiens), P07949 [V804M]; conditions: Compound concentration 1000.0 nM
[30] = molecular target: Ribosomal protein S6 kinase alpha-6 (Homo sapiens) (UniProt Q9UK32); conditions: Compound concentration 1000.0 nM
[31] = molecular target: Serine/threonine-protein kinase Sgk2 (Homo sapiens) (UniProt Q9HBY8); conditions: Compound concentration 1000.0 nM
[32] = molecular target: SNF-related serine/threonine-protein kinase (Homo sapiens) (UniProt Q9NRH2); conditions: Compound concentration 1000.0 nM
[33] = molecular target: Serine/threonine-protein kinase TAO1 (Homo sapiens) (UniProt Q7L7X3); conditions: Compound concentration 1000.0 nM
[34] = molecular target: Serine/threonine-protein kinase TAO2 (Homo sapiens) (UniProt Q9UL54); conditions: Compound concentration 1000.0 nM
[35] = molecular target: Serine/threonine-protein kinase TBK1 (Homo sapiens) (UniProt Q9UHD2); conditions: Compound concentration 1000.0 nM
[36] = molecular target: Angiopoietin-1 receptor (Homo sapiens) (UniProt Q02763); conditions: Compound concentration 1000.0 nM
[37] = molecular target: Non-receptor tyrosine-protein kinase TYK2 (Homo sapiens) (UniProt P29597); conditions: Compound concentration 1000.0 nM
[38] = molecular target: Tyrosine-protein kinase receptor TYRO3 (Homo sapiens) (UniProt Q06418); conditions: Compound concentration 1000.0 nM
[39] = molecular target: Serine/threonine-protein kinase VRK2 (Homo sapiens) (UniProt Q86Y07); conditions: Compound concentration 1000.0 nM
[40] = molecular target: Serine/threonine-protein kinase WNK1 (Homo sapiens) (UniProt Q9H4A3); conditions: Compound concentration 1000.0 nM
[41] = molecular target: Serine/threonine-protein kinase WNK3 (Homo sapiens) (UniProt Q9BYP7); conditions: Compound concentration 1000.0 nM
[42] = molecular target: 5-hydroxytryptamine receptor 1B (Homo sapiens) (UniProt P28222); conditions: Compound concentration 10.0 uM
[43] = molecular target: 5-hydroxytryptamine receptor 1E (Homo sapiens) (UniProt P28566); conditions: Compound concentration 10.0 uM
[44] = molecular target: Sodium-dependent serotonin transporter (Homo sapiens) (UniProt P31645); conditions: Compound concentration 10.0 uM
[45] = molecular target: Muscarinic acetylcholine receptor M4 (Homo sapiens) (UniProt P08173); conditions: Compound concentration 10.0 uM

Chain of Receptor-type tyrosine-protein kinase FLT3 (Homo sapiens) (P36888 whole entry): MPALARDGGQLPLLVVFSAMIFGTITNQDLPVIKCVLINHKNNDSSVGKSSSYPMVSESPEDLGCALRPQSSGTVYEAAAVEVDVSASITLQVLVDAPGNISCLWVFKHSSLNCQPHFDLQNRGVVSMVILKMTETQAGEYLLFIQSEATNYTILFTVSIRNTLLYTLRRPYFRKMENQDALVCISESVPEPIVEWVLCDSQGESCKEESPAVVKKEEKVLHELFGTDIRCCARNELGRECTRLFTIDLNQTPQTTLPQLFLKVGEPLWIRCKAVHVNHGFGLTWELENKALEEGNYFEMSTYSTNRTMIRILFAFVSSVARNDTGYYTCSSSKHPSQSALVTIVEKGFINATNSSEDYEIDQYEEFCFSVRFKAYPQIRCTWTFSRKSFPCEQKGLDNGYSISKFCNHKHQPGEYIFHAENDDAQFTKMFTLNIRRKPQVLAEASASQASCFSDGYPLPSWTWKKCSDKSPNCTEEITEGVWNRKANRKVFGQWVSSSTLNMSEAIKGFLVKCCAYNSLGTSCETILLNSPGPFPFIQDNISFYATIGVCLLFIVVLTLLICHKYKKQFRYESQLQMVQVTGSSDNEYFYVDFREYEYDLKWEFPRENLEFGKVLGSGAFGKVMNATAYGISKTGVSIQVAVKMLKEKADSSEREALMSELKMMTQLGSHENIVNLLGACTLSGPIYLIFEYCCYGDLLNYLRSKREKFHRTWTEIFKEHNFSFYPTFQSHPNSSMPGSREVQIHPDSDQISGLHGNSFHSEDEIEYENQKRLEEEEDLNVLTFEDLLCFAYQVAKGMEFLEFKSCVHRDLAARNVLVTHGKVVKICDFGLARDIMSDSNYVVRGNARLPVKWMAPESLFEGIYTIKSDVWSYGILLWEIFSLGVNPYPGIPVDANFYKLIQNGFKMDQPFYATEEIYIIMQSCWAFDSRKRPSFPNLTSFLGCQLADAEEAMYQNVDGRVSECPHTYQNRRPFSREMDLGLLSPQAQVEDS
Chain of Phosphatidylinositol 4,5-bisphosphate 3-kinase catalytic subunit alpha isoform (Homo sapiens), P42336 [C420R] (P42336 whole entry C420R, canonical isoform): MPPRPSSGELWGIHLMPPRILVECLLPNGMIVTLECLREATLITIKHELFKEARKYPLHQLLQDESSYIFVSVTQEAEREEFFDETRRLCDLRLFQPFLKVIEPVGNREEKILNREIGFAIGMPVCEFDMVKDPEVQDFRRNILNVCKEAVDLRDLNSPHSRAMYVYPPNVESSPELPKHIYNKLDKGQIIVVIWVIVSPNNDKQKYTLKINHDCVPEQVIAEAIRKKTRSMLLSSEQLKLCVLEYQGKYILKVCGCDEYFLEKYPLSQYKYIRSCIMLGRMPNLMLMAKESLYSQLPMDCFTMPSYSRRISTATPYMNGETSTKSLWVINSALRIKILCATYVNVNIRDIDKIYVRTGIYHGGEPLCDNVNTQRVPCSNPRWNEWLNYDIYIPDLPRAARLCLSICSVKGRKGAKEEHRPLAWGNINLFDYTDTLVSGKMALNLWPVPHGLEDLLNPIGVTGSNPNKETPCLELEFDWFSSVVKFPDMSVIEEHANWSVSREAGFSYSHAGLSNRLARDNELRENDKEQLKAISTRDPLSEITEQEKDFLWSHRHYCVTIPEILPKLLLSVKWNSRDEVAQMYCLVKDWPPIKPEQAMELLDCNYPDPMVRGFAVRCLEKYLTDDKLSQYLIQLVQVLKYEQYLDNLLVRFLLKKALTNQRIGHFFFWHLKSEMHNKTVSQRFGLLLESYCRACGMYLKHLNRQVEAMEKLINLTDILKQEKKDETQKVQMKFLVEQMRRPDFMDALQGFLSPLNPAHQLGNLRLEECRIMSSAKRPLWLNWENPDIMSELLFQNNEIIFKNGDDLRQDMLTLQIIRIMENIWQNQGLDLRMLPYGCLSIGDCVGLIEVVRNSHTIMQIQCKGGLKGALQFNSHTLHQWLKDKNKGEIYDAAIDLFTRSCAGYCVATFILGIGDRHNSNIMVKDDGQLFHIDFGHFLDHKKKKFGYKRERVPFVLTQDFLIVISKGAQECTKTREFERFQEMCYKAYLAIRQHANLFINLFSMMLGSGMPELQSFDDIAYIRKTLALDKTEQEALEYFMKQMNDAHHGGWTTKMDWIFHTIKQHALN
Chain of Receptor-type tyrosine-protein kinase FLT3 (Homo sapiens), P36888 [UNDEFINED MUTATION] (P36888 whole entry, looked up, change not shown): as the sequence (P36888 whole entry) above
Chain of Tyrosine-protein kinase Lck (Homo sapiens) (P06239 2-509 limits assumed): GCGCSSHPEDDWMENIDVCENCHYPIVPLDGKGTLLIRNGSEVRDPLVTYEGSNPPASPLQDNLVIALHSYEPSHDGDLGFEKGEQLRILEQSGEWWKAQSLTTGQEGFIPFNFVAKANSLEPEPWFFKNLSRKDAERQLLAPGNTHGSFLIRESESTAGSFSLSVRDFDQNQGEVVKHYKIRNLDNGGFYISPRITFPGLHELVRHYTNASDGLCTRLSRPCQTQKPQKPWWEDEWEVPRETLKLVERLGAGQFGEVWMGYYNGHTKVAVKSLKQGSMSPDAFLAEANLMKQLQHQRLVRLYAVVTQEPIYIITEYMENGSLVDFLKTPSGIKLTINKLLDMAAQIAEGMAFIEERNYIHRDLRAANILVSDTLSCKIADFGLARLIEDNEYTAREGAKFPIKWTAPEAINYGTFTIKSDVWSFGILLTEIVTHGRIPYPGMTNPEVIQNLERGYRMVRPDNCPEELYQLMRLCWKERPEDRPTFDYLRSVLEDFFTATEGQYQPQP
Chain of Cyclin-dependent kinase 17 (Homo sapiens) (Q00537 whole entry, looked up, canonical isoform): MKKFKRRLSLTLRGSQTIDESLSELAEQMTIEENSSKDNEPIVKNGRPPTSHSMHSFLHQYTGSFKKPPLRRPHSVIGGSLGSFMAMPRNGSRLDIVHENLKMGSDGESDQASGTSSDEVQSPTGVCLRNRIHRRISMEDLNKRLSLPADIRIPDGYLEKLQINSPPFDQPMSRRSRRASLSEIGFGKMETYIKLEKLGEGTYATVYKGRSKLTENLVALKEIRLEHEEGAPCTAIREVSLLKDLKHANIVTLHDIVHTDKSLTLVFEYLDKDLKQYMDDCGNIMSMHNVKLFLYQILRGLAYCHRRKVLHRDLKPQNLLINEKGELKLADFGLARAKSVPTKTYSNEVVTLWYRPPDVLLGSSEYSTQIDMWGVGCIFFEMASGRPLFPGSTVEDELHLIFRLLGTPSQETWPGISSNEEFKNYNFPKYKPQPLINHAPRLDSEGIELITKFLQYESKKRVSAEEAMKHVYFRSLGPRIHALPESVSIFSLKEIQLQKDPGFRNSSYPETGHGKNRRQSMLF
Chain of Serine/threonine-protein kinase TAO1 (Homo sapiens) (Q7L7X3 whole entry): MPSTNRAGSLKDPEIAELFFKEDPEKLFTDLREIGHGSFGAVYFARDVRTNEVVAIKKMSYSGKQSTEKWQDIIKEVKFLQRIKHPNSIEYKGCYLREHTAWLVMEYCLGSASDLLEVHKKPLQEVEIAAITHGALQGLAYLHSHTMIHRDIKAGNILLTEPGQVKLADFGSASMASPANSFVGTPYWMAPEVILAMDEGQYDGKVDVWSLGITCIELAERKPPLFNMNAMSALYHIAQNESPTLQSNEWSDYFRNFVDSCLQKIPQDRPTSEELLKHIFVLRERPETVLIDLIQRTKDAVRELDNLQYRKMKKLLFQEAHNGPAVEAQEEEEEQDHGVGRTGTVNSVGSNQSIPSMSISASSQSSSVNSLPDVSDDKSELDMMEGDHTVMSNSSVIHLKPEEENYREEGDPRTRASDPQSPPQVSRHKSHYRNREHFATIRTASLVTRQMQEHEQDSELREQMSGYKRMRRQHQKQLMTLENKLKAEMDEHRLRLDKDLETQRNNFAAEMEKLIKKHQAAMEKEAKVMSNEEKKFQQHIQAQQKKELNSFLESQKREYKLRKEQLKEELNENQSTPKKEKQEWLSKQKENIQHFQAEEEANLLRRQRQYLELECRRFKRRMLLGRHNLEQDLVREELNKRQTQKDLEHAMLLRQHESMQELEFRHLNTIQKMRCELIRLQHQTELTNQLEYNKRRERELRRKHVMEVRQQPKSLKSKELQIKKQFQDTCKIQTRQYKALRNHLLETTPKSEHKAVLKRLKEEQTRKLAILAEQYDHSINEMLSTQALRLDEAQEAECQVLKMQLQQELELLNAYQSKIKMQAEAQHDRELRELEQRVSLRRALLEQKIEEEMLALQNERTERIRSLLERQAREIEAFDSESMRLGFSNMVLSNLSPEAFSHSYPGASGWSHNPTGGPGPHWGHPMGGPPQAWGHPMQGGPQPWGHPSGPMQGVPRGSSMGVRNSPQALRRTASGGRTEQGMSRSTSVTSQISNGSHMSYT

N#Cc1ccc(Nc2ccc3[nH]c(=O)[nH]c3c2)c(Cl)c1
inactive: residual activity [1] 100% | residual activity [2] 70% | residual activity [3] 100% | residual activity [4] 100% | residual activity [5] 91% | residual activity [6] 84% | residual activity [7] 97% | residual activity [8] 86% | residual activity [9] 100% | residual activity [10] 100% | residual activity [11] 97% | residual activity [12] 73% | residual activity [13] 89% | residual activity [14] 100% | residual activity [15] 95% | residual activity [16] 100% | residual activity [17] 97% | residual activity [18] 100% | residual activity [19] 78% | residual activity [20] 80% | residual activity [21] 100% | residual activity [22] 100% | residual activity [23] 100% | residual activity [24] 85% | residual activity [25] 100% | residual activity [26] 90% | residual activity [27] 100% | residual activity [28] 79% | residual activity [29] 93% | residual activity [30] 84% | residual activity [31] 65% | residual activity [32] 100% | residual activity [33] 97% | residual activity [34] 100% | residual activity [35] 100% | residual activity [36] 85% | residual activity [37] 100% | residual activity [38] 62% | residual activity [39] 100% | residual activity [40] 100% | residual activity [41] 100% | inhibition [42] 6.7% | inhibition [43] 12.6% | inhibition [44] 21.1% | inhibition [45] 11.6%

O=C1CCc2cc(Nc3cc(OC4CCOCC4)c([N+](=O)[O-])cc3Cl)ccc2N1
inactive: residual activity [1] 93% | residual activity [2] 81% | residual activity [3] 100% | residual activity [4] 91% | residual activity [5] 90% | residual activity [6] 78% | residual activity [7] 96% | residual activity [8] 83% | residual activity [9] 90% | residual activity [10] 89% | residual activity [11] 99% | residual activity [12] 73% | residual activity [13] 64% | residual activity [14] 90% | residual activity [15] 93% | residual activity [16] 100% | residual activity [17] 100% | residual activity [18] 100% | residual activity [19] 71% | residual activity [20] 69% | residual activity [21] 100% | residual activity [22] 97% | residual activity [23] 96% | residual activity [24] 86% | residual activity [25] 91% | residual activity [26] 97% | residual activity [27] 100% | residual activity [28] 79% | residual activity [29] 100% | residual activity [30] 77% | residual activity [31] 80% | residual activity [32] 100% | residual activity [33] 81% | residual activity [34] 82% | residual activity [35] 100% | residual activity [36] 76% | residual activity [37] 94% | residual activity [38] 100% | residual activity [39] 100% | residual activity [40] 86% | residual activity [41] 87% | inhibition [42] 14.3% | inhibition [43] 16.5% | inhibition [44] 23.5% | inhibition [45] 48.7%
